The assay addresses dihydroorotate dehydrogenase (DHODH) (Escherichia coli, UniProt P0A7E1). The assay is described as follows: continuous DCIP-reduction assay at […] nm, Lineweaver-Burk analysis. Type of assay: biochemical.

Sequence of dihydroorotate dehydrogenase (DHODH) (P0A7E1 whole entry): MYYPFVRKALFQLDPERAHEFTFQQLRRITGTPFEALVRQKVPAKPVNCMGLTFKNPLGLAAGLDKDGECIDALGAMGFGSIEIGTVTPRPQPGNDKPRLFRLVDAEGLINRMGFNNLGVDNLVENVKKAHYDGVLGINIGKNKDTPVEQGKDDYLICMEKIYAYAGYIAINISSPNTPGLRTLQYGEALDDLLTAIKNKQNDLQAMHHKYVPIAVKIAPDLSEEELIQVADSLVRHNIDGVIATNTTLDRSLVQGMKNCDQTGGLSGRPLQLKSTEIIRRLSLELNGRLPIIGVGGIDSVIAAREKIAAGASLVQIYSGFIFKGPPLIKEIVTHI

What is called Ki is the equilibrium dissociation constant of an inhibitor or competing ligand from its target. A high value points to weaker binding. Regarding `CCCCCCCc1cc(=O)c2ccccc2n1O` [HQNO, 2-heptyl-4(1H)-quinolone N-oxide], the Ki was determined as 239 nM.
In the case of `CCCCCCC=CCc1nc2ccccc2c(O)c1C` [HMNQ, 4-hydroxy-3-methyl-2-(2-nonenyl)-quinoline] it was 51 nM.

Source of the values: PMC5741510 (Cell chemical biology, 2017).
